The values below come from the METLIN SMRT retention time set (Domingo-Almenara et al. 2019).

Structures are written as SMILES.

The data set in a line: gradient 5% acetonitrile 3 min, to 50% in 2 min, to 85% in 15 min, held 3 min, 100 µL/min. The settings on record: column: Zorbax Extend-C18 2.1 x 50 mm; eluents: water / acetonitrile, 0.1% formic acid. In short, it runs like this: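 Retention times of pure standards were taken from adduct peaks that were selected by computer and manually inspected. Over 3 months, mixtures of ~100 molecules were run by HPLC–quadrupole time-of-flight mass spectrometry in positive and negative ionization mode. The Zorbax Extend-C18 column (2.1 × 50 mm, 1.8 μm) ran at 100 μL/min in water and acetonitrile, each containing 0.1% formic acid, with 40 μL dead volume and 900 μL dwell volume.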
In turn, `CCOc1ccc(C(=O)NC2(c3nc(C(C)C)no3)CCCCC2)cc1OCC` showed an RP-LC retention time of 1060 s.
In the case of `O=C(c1ccoc1)N1CCN(S(=O)(=O)c2cc(-c3noc(C4CCC4)n3)cs2)CC1` it was 943 s; in that of `O=C(CSc1ccc(N2CCOCC2)nn1)Nc1ccc(F)cc1F`, 669 s; in that of `Cn1cc(-c2nc(C(=O)Nc3ccc(F)cc3)cs2)c2cccnc21`, 973 s.
The compound `COc1cc(OC)cc(-c2nc(-c3ccc(NS(=O)(=O)c4cccs4)cc3)no2)c1` returned an RP-LC retention time of 1120 s.
In the case of `CCOC(=O)c1c(C)n(Cc2ccco2)c2ccc(OCC)cc12` it was 617 s; in that of `CCc1noc(NC(C)=O)c1-c1ccc(OC)c(S(=O)(=O)NC2CCCCC2)c1`, 804 s; in that of `CC1=CC(C)(C(Cl)(Cl)Cl)C(C)=C/C1=N/O` (stereo not given), 1100 s.
For the compound `O=C(NCc1cc(F)ccc1F)c1ccc2ncnc(N3CCCC3)c2c1`, the RP-LC retention time was 650 s.
The value for `CCOC(=O)c1cnc2nc(C)ccc2c1Nc1cc(Cl)ccc1F` was 774 s.
In the case of `Cc1ccc(S(=O)(=O)N2C(=O)CCC2C(=O)Nc2cc(C)ccc2C)cc1` (stereo not given) it was 939 s; in that of `Cn1c(=O)c2ccn(CC(=O)NCc3cccc(Cl)c3)c2n(C)c1=O`, 703 s.
The value for `CC(NC(=O)c1ccncc1)C(=O)Nc1nc2ccccc2[nH]1` (stereo not given) was 566 s; that for `Cc1ccc2c(c1)N(S(C)(=O)=O)CCC(C(=O)NC(C)c1ccccc1)O2` (stereo not given) was 900 s.
In turn, `Cc1ccc(NC(=O)N2CCCC2c2c(C)noc2C)c(Cl)c1` (stereo not given) had an RP-LC retention time of 872 s.
The value for `CC(=O)Nc1cccc(C2OC(c3ccc(Cl)cc3Cl)=NN2C(C)=O)c1` (stereo not given) was 914 s; that for `CCC1CCCCN1c1cc(SCC(=O)Nc2ccc(N(C)C)cc2)ncn1` (stereo not given) was 709 s; that for `CC1CCCN(c2ccc(-c3noc(CN4CCN(c5ccccn5)CC4)n3)cn2)C1` (stereo not given) was 908 s.
In the case of `CSc1ccc(NC(=O)c2cc3c(s2)CN(C2CC2)C3)cc1`, the RP-LC retention time is 644 s.
The value for `Cc1cc(C)n(CCNC(=O)c2ccc(N3CCOCC3)nn2)n1` was 572 s; that for `CCN(CC)C(=O)CN1C(=O)C2(NC(C)C3C(=O)N(Cc4ccccc4)C(=O)C32)c2ccccc21` (stereo not given) was 857 s.
In the case of `Cc1cccc(NC(=O)N2CCC(c3nc(C(=O)N(C)C)c(C)o3)CC2)c1` it was 689 s; in that of `Cc1ccc(NC(=O)Nc2cnn(-c3ncc(N4CCCC4)cn3)c2)c(Cl)c1`, 844 s; in that of `O=C(Cn1ncc2c(N3CCN(c4ccccn4)CC3)ncnc21)Nc1ccc(Cl)cc1`, 643 s.
`COc1cccc2c(Nc3ccc(N(C)C)cc3)cc(C(=O)N3CCSCC3)nc12` came in with an RP-LC retention time of 682 s.
In the case of `CCCNC(=O)Cc1c(C)nc2nc(-c3ccc(C(C)(C)C)cc3)nn2c1C` it was 920 s; in that of `Cn1c(CN2CCN(C(=O)c3ccco3)CC2)nc2cc(NC(=O)C3CCCCC3)ccc21`, 664 s; in that of `CCc1cc(=O)n(CC(=O)Nc2ccccc2)c(N2CCOCC2)n1`, 687 s.
The value for `Cc1nn(-c2ccc(N3CCCC3)nn2)c(C)c1CCC(=O)N1CCCC1` was 599 s.
In the case of `CCC1CCCCN1CCCNC(=O)c1cc(S(=O)(=O)N2CCCC2)ccc1Cl` (stereo not given) it was 661 s; in that of `CSc1nc(=O)[nH]nc1Sc1ccccc1`, 800 s.
`O=C(Nc1ccccc1C(F)(F)F)N1CCN(c2ccc(=O)n(-c3ccc(F)cc3)n2)CC1` returned an RP-LC retention time of 794 s.
`O=C(Cn1c(=O)c2cccn2c2ccc(F)cc21)NCCC1=CCCCC1`: the RP-LC retention time turned out to be 952 s.
The compound `Fc1ccc(-c2ccc(CNCCCn3ccnc3)o2)cc1Cl` showed an RP-LC retention time of 585 s.
`CC(=O)NCc1csc(C2CCN(C(=O)COc3ccccc3)CC2)n1` had an RP-LC retention time of 646 s.
In the case of `Cc1ccc(CNS(=O)(=O)c2cc(-c3[nH]ncc3C(=O)N3CCCC3)oc2C)o1` it was 674 s; in that of `Cc1ccc(NC(=O)C(C)C2CCN(C(=O)Nc3ccc(F)cc3)CC2)cc1C` (stereo not given), 928 s; in that of `Cc1ccc2c(c1)N(Cc1ccccc1C)N=C(C(=O)N1CCOCC1)S2(=O)=O`, 877 s.
The value for `O=C(NC1CCCCC1)C1CCCN(c2ccc3cc(S(=O)(=O)N4CCCCC4)ccc3n2)C1` (stereo not given) was 832 s; that for `CCc1noc(NC(C)=O)c1-c1ccc(OC)c(S(=O)(=O)N2CC=C(c3ccccc3)CC2)c1` was 918 s; that for `CCCNc1cc(N2CCC(CCC(=O)NCC3CC3)CC2)ncn1` was 560 s.
In the case of `CCCN1C(=O)c2n[nH]c(-c3ccco3)c2C1c1ccc(O)c(OC)c1` (stereo not given) it was 699 s.
`CCn1cc(C)c(C(=O)O)c1CC(=O)N1CCc2ccccc21` displayed an RP-LC retention time of 815 s.
In the case of `O=C(c1cc2ccccc2[nH]1)N1CCC(Cn2c(C(F)(F)F)nc3ccccc32)CC1` it was 881 s.
As to `COCCOCC1CCN(S(=O)(=O)c2ccc(C(F)(F)F)cc2)CC1`, the RP-LC retention time came out at 937 s.
The value for `COc1cc(NC(=O)N2CCC(n3c(C)nc4cccnc43)CC2)cc(OC)c1` was 637 s; that for `CCOc1ccc(N(C)S(=O)(=O)c2ccsc2C(=O)NCc2cccc(OCC)c2)cc1` was 1160 s; that for `COc1ccccc1C(=O)N1CCC2(CC1)c1nccn1-c1ccccc1CN2CC(C)C` was 692 s.
The value for `Cc1nc(-c2ccc(S(=O)(=O)N3CCc4ccccc4C3)cc2)co1` was 1020 s.
`CCOC(=O)c1cn(CC(=O)Nc2cc(F)ccc2F)nn1` registered an RP-LC retention time of 740 s.
In the case of `CCC(=O)N1CCc2cc(N3CC(C(=O)N4CCC(C)CC4)CC3=O)ccc21` (stereo not given) it was 726 s; in that of `O=C(CCC1CCCC1)Nc1ccc(-c2nnc3n2CCCC3)cc1`, 765 s.
In the case of `CCCn1cc(CCNC(=O)c2ccnn2CC)c2cccnc21` it was 678 s; in that of `COc1ccc(C(=O)N2CCCn3cc(-c4ccccc4)nc32)cn1`, 532 s.
In the case of `CCN1CCN(c2cc(C)c3cc(NC(=O)CCC4CCCC4)ccc3n2)CC1`, the RP-LC retention time was 620 s.
The value for `CCCNc1cc(-n2nc(C)cc2C)ncn1` was 771 s.
For the compound `Cc1cccn2cc(C(=O)NCc3ccccc3Cl)nc12`, the RP-LC retention time came out at 704 s.
As for `COCc1c(C(=O)N2CCCC2Cc2noc(C3CCCC3)n2)noc1C` (stereo not given), the RP-LC retention time came to 922 s.
In the case of `Cn1cc(CCNC(=O)Nc2ccc3c(c2)OCCO3)c2cccnc21` it was 639 s.
Turning to `COC(=O)CS(=O)c1ccc(C(F)(F)F)cc1[N+](=O)[O-]` (stereo not given), the RP-LC retention time came out at 730 s.
The value for `O=C(NCC(F)(F)F)C1CCN(C(=O)COc2ccccc2)CC1` was 676 s.
The value for `Cc1cc(C)n(-c2nc(CC(=O)NCc3ccc(F)cc3)cs2)n1` was 854 s.
The value for `CC(C)CNC(=O)c1cn(-c2cc(-c3nc(C4CC4)no3)ccn2)cn1` was 646 s; that for `Cc1c(-c2noc(-c3ccc(F)c(F)c3)n2)nnn1Cc1ccccc1` was 1090 s; that for `COc1cccc(-n2c(=O)c(C(=O)Nc3ccc(F)cc3Cl)c(O)c3cccnc32)c1` was 1290 s.
With `Cc1ccc(C)c(N2CCN(C(=O)c3c(C)sc4ccn(C)c(=O)c34)CC2)c1`, the RP-LC retention time was determined as 946 s.
The value for `Cc1ccc(CN2CCN(C3CCN(S(=O)(=O)c4cc(F)ccc4C)CC3)C(=O)C2=O)cc1` was 920 s; that for `CCCn1cnc2cc(CNC(=O)c3ccc(C(C)C)cc3)ccc21` was 690 s; that for `CCCCC(=O)Nc1ccc(OCc2cc(C(=O)NC3CC3)no2)cc1` was 798 s.
In the case of `Cc1ccc(C(=O)Nc2cccc(OCc3nnc(-c4ccc(Cl)cc4)o3)c2)s1` it was 1100 s; in that of `COc1ccc(Nc2nc(N3CCN(c4ccc(F)cc4)CC3)nc3n[nH]nc23)cc1`, 840 s.
The value for `CCS(=O)(=O)N1CCCc2cc(C(=O)NCc3ccc4c(c3)OCO4)ccc21` was 832 s; that for `O=C(N1CCC(Cc2noc(-c3ccc(F)cc3)n2)C1)C1(c2ccccc2)CC1` (stereo not given) was 1010 s; that for `COc1ccc(C2C(=O)N(C3CCC(C)CC3)CC(=O)N2Cc2ccco2)cc1OC` (stereo not given) was 883 s.
In the case of `Cc1cccc(-n2ncc3c(N4CCN(CCO)CC4)ncnc32)c1`, the RP-LC retention time worked out at 622 s.
In the case of `COc1ccc(NC(=O)c2ccc(N3C(=O)CCC3=O)cc2)c2ccccc12` it was 691 s.
In the case of `Cc1nnc2ccc(S(=O)(=O)N(Cc3ccccc3)c3cc(F)cc(F)c3)cn12` it was 899 s.
The value for `CCCNC(=O)c1cnn(-c2ccc(-c3nc(C(C)(C)C)no3)cn2)c1C` was 1070 s; that for `CCSc1nc2ccc(NS(=O)(=O)c3ccc4c(c3)OCCO4)cc2s1` was 987 s; that for `Cc1cccc(-c2noc(C3CCCN3S(=O)(=O)c3ccc4c(c3)CCCC4)n2)c1` (stereo not given) was 1340 s.
